Data: US11643439B2, “Multi-target compound with anticoagulation and antiplatelet activity, preparation method therefor, and use thereof” (SHAANXI MICOT TECHNOLOGY LIMITED COMPANY, priority 2015, dated 2023)
Marks after values point to notes of the source that are not given here.

Columns and labels:
[1] = system: blood coagulation function; experiment: PT in rabbits, single intravenous administration; type: in vivo, rabbit
Method: (§1) 1. Grouping and administration: 48 Rabbits were randomly divided into 6 groups, 8 rabbits per group. 1) Sham operation group (NS): Intravenous injection of the same volume of physiological saline; 2) positive control bivalirudin group (6 mg/kg); 3) positive control enoxaparin group (200 U/kg); 4) Low dose group of polypeptide 2 (3.0 mg/kg); 5) Medium dose group of polypeptide 2 (6.0 mg/kg); 6) High dose group of polypeptide 2 (12.0 mg/kg). Polypeptide 2 was administered by single intravenous administration. According to the body weight in kilograms of the rabbits, the sample was dissolved in 2 mL of physiological saline for single bolus injection. The sham operation group was administered with the same volume of physiological saline.
3.2 Determination of blood coagulation function: Blood samples were taken and the blood function (PT, TT, APTT) was determined at 0 min before administration, at points of 5 min and 15 min after administration, using a platelet-aggregation coagulation factor analyzer. Blood samples were centrifuged at 3510 rpm for 8 min to obtain platelet poor plasma (PPP). Reagent reconstruction and preservation were performed according to the operation requirements of the kit. Immediately after each blood sample was placed into a test cup and then added with PT. TT and APTT reagents, the test was started. After the test was completed, results were recorded.

[2] = system: platelet aggregation; experiment: Platelet aggregation in rabbits, single intravenous administration; type: in vivo, rabbit
Method: as §1
3.1 Platelet aggregation rate: 2.7 ml of blood was taken from the femoral vein, rapidly injected into a centrifuge tube containing 0.3 ml of 3.8% sodium citrate solution, and fully mixed well. The resulted blood samples were centrifuged at 810 rpm (100 g) for 8 min to obtain PRP, which was taken out and centrifuged at 3500 rpm (1863 g) for 8 min to obtain PPP, which was used to determine platelet aggregation.
Blood samples were taken at a point before administration (0 min), and at points of administration for 5 min and 15 min, respectively, to determine the platelet aggregation rate, which was used to calculate the inhibitory rate of platelet aggregation with a calculation equation as follows: […]

[3] = system: FeCl3-induced common carotid arterial thrombosis; experiment: FeCl3-induced common carotid arterial thrombosis in rats; type: in vivo, rat
Method: 160 Rats were randomly divided into groups, 5 to 10 rats per group.
According to the body weight in kilograms of the rats, the first dose of a drug was dissolved in 2 mL of physiological saline for single bolus injection. The maintaining dose of drug was dissolved in 9 ml of physiological saline, and placed in a double-channel micro-injection pump, which was dripped off within 90 minutes at a dripping speed of 0.1 ml/min. The sham operation group was administered with the same volume of physiological saline.
The rats were fasted with free access to water overnight before the experiment.
After administration at a load dosage maintenance for 30 minutes, a filter paper with a 3 mm diameter and immersed with 35% FeCl3 solution was applied below the common carotid artery, below which a small piece of a plastic film (2.5 cm×2.0 cm) was placed to protect surrounding tissues. The body temperature was detected with a temperature probe in the distal end of the artery, and the time required from the beginning of stimulation to the point when the temperature decreased by 2.5 degrees was examined as the vascular occlusion time.
The time from the point when FeCl3 was placed to the point when the temperature of the artery indicated a decrease of 2.5° C. was the vascular occlusion time, which reflected the state of thrombus formation.

[4] = system: thrombin-induced pulmonary embolism; experiment: Thrombin-induced pulmonary embolism in mice; type: in vivo, mouse; details: thrombin 1500 u/kg; for Mortality rate: within 15 min
Method: Mice were randomly divided into 7 groups with 10 mice per group, in which group 1 was physiological saline group, group 2 was model control group, group 3 was positive control group of enoxaparin 0.5 mg/kg, group 4 was positive control group of bivalirudin 8 mg/kg, group 5 was low dose group of polypeptide 2 at 2.5 mg/kg, group 6 was medium dose group of polypeptide 2 at 5.0 mg/kg, and group 7 was high dose group of polypeptide 2 at 10.0 mg/kg. Except that physiological saline group and model control group were subjected to tail intravenous injection of 200 μl physiological saline, the other groups were given according to the doses, respectively. After 2 min, the mice in physiological saline group were administered with 100 μl physiological saline through tail intravenous injection and the other groups were each administered with 100 μl thrombin based on 1500 u/kg (80% to 90% of the lethal dose) through tail intravenous injection. The mice were observed after the administration for their death within 15 min.
(1) Recording mortality rate: the death status of mice with acute pulmonary embolism mice within 15 min was recorded and the survival time was recorded, to calculate the mortality rate;
(2) Determining lung coefficient: immediately after death, the bronchial and adipose tissues were dissected away from the lung tissue, and the lung tissue was washed with distilled water, and weighed for the lung weight after soaking up the water on the surface of the lung with a filter paper. The lung was taken out and weighed, to calculate the lung coefficient. Lung coefficient=Lung weight/Body weight×100%;
The lung was immediately dissected and taken out and weighed to determine the lung coefficient.

[5] = single iv 6.0 mg/kg, Administration for 5 min
[6] = single iv 6.0 mg/kg, Administration for 15 min
[7] = iv 0.08 + 0.325 (mg/kg + mg/kg/h)
[8] = iv 0.17 + 0.65 (mg/kg + mg/kg/h)
[9] = iv 0.35 + 1.3 (mg/kg + mg/kg/h)
[10] = single iv 200 (U/kg), Administration for 5 min
[11] = single iv 200 (U/kg), Administration for 15 min

Bivalirudin: Bivalirudin for Injection, Xi'an Xintong Pharmaceutical Research Co., Ltd.; positive control thrombin inhibitor
PT fold of prolongation ([1]; single iv 6.0 mg/kg, Administration 5 min): 3.0 ± 0.5 | PT fold of prolongation ([1]; single iv 6.0 mg/kg, Administration 15 min): 1.6 ± 0.2 | PT [1, 5]: 18.8 ± 1.1 S | PT [1, 6]: 10.2 ± 0.7 S | PT ([1]; single iv 6.0 mg/kg, Before administration): 6.4 ± 0.2 S | inhibitory rate of platelet aggregation [2, 5]: 5.2 ± 5.8% | inhibitory rate of platelet aggregation [2, 6]: 4.6 ± 6.0% | Common carotid arterial thrombosis Fold of prolongation [3, 7]: 1.79 ± 0.06 | Common carotid arterial thrombosis OT [3, 7]: 44.75 ± 1.53 min | Common carotid arterial thrombosis Fold of prolongation [3, 8]: 2.24 ± 0.24 | Common carotid arterial thrombosis OT [3, 8]: 56.00 ± 6.03 min | Common carotid arterial thrombosis Fold of prolongation [3, 9]: 2.23 ± 0.33 | Common carotid arterial thrombosis OT [3, 9]: 55.63 ± 8.21 min | Common carotid arterial thrombosis Fold of prolongation ([3]; iv 0.5 + 2 (mg/kg + mg/kg/h)): 2.32 ± 0.23 | Common carotid arterial thrombosis OT ([3]; iv 0.5 + 2 (mg/kg + mg/kg/h)): 58.00 ± 5.77 min | Lung coefficient ([4]; tail iv 8.0 mg/kg): 0.99 ± 0.07 g/100 g | Number of platelets ([4]; tail iv 8.0 mg/kg): 411.89 ± 175.52 ×10^9 | Mortality rate ([4]; tail iv 8.0 mg/kg, 8 mg/kg): 10**^## % | Mortality rate ([4]; tail iv 8.0 mg/kg, listed as bivalirudin, 8 mg/kg): 10%

Enoxaparin
PT fold of prolongation ([1]; single iv 200 (U/kg), Administration 5 min): 1.2 ± 0.1 | PT fold of prolongation ([1]; single iv 200 (U/kg), Administration 15 min): 1.2 ± 0.1 | PT [1, 10]: 6.7 ± 1.1 S | PT [1, 11]: 6.7 ± 0.8 S | PT ([1]; single iv 200 (U/kg), Before administration): 5.8 ± 0.2 S | inhibitory rate of platelet aggregation [2, 10]: 9.5 ± 6.2% | inhibitory rate of platelet aggregation [2, 11]: 16.1 ± 6.5% | Common carotid arterial thrombosis Fold of prolongation ([3]; iv 30 + 45 u (U/kg+U/kg/h)): 1.93 ± 0.52 | Common carotid arterial thrombosis OT ([3]; iv 30 + 45 u (U/kg+U/kg/h)): 48.17 ± 13.12 min | Common carotid arterial thrombosis Fold of prolongation ([3]; iv 30 + 120 u (U/kg+U/kg/h)): 1.66 ± 0.27 | Common carotid arterial thrombosis OT ([3]; iv 30 + 120 u (U/kg+U/kg/h)): 41.4 ± 6.68 min | Common carotid arterial thrombosis Fold of prolongation ([3]; iv 60 + 60 u (U/kg+U/kg/h)): 2.23 ± 0.29 | Common carotid arterial thrombosis OT ([3]; iv 60 + 60 u (U/kg+U/kg/h)): 55.75 ± 7.23 min | Common carotid arterial thrombosis Fold of prolongation ([3]; iv 60 + 240 u (U/kg+U/kg/h)): 1.99 ± 0.20 | Common carotid arterial thrombosis OT ([3]; iv 60 + 240 u (U/kg+U/kg/h)): 49.75 ± 5.04 min | Common carotid arterial thrombosis Fold of prolongation ([3]; iv 90 + 120 u (U/kg+U/kg/h)): 1.95 ± 0.46 | Common carotid arterial thrombosis OT ([3]; iv 90 + 120 u (U/kg+U/kg/h)): 48.83 ± 11.58 min | Mortality rate ([4]; tail iv 0.5 mg/kg): 10% | Lung coefficient ([4]; tail iv 250 IU/kg): 1.02 ± 0.33 g/100 g
